From patent publication US10034462B2, “Animal model of nash-induced hepatocellular carcinoma and methods for developing specific therapeutics” (THE REGENTS OF THE UNIVERSITY OF CALIFORNIA, priority 2015, dated 2018)

What was measured:
[1] = test system: primary hepatocytes from WT and MUP-uPA mice; assay: PA-induced lipotoxic cell death in primary hepatocytes (Cell Counting Kit-8 cell viability); type: cell-based; settings: for PA-induced cell death (cell viability): 300 μM PA for 24 hr with 500 μM TUDCA or 1 mM 4-PBA, WT and MUP-uPA hepatocytes
Protocol: (§1) Cell viability was assessed using Cell Counting Kit-8 assay. Data are means±S.D. of triplicate wells. *p<0.05. […] CHOP expression, SREBP1 maturation, and JNK phosphorylation were assessed by IB. FIGS. 4C-4D show the effect of GRP78 overexpression. MUP-uPA hepatocytes were infected with adenoviruses encoding LacZ or GRP78 and then incubated with PA. SREBP1 maturation (FIG. 4C) and cell viability (FIG. 4D) were assessed as above. […] Data are means±S.D. of triplicate wells. *p<0.05. FIGS. 4F-4I show the effect of TUDCA on NASH in HFD-fed MUP-uPA mice. 16 week old HFD-fed MUP-uPA mice were i.p. injected with TUDCA (250 mg/kg) or vehicle, and after 4 weeks of daily treatment, liver histology (scale bar=100 μm) (FIG. 4F), serum ALT (FIG. 4G), liver TG (FIG. 4H) and liver cholesterol (FIG. 4I) were evaluated. Bar graphs are means±S.D. (n=5 per group). *p<0.05. See also FIGS. 11A-11M.
To examine whether ER stress enhances lipotoxicity in MUP-uPA hepatocytes, we incubated WT and MUP-uPA hepatocytes with PA.

[2] = test system: primary hepatocytes from WT and MUP-uPA mice; assay: Immunoblot of CHOP expression, SREBP1 maturation and JNK phosphorylation in PA-treated primary hepatocytes; type: cell-based, mouse
Protocol: as §1, with “FIGS. 4A-4I are pictorial and graphical diagrams showing that chemical chaperons attenuate lipotoxicity and liver damage in MUP-uPA mice. […] Cell viability” for “Cell viability”
Primary hepatocytes were isolated (He et al., 2013) and cultured in William's E medium with 10% FBS on collagen-coated plates. PA (Sigma) was dissolved in ethanol at 50° C. and then diluted in bovine serum albumin-containing RPMI-1640 medium that was applied to primary hepatocytes at a final concentration of 200 (to analyze signal transduction) or 300 (to analyze cell death) μM.
Immunoblotting and real-time Q-PCR were described (Maeda et al., 2005). Antibodies used were against: phospho-ERK, ERK1/2, phospho STAT3, STAT3, phospho-JNK, JNK1/2, phospho-S6, S6, p65, cyclinD1, YAP (all from Cell Signaling); K19, GRP78, SREBP1, CHOP, CCL7, TNFR1 (all from Santa Cruz Biotechnology); phospho-eIF2α (Upstate); tubulin (Sigma); F4/80 (Molecular Probes); Ki67 (Gene Tex); AFP (Biocare Medical); TNF (R&D Systems); B220 (BD Pharmingen). TUDCA and 4-PBA were from Calbiochem and Sigma, respectively. GSH:GSSG ratio was analyzed using GSSG/GSH Quantification Kit (Dojindo).
To examine whether ER stress enhances lipotoxicity in MUP-uPA hepatocytes, we incubated WT and MUP-uPA hepatocytes with PA. […] PA increased CHOP expression and SREBP1 maturation in WT hepatocytes, but these effects were more pronounced in MUP-uPA hepatocytes, which expressed both proteins prior to PA addition (FIG. 4B). To examine the contribution of ER stress to these phenomena, we treated hepatocytes with the chemical chaperons 4-phenylbutyrate (4-PBA) and tauro-ursodeoxycholic acid (TUDCA), which reduce ER stress (Ozcan et al., 2006).

[3] = test system: HFD-fed MUP-uPA mice; assay: Effect of TUDCA on NASH in HFD-fed MUP-uPA mice; type: in vivo, mouse
Protocol: as §1, with “FIGS. 4A-4I are pictorial and graphical diagrams showing that chemical chaperons attenuate lipotoxicity and liver damage in MUP-uPA mice. […] Cell viability” for “Cell viability”
FIGS. 11A-11M are pictorial and graphical diagrams showing the effects of TUDCA and GRP78 overexpression and CHOP ablation on NASH and HCC development. FIGS. 11A and 11B show cell death and ROS accumulation in livers of TUDCA- or vehicle-treated HFD-fed MUP-uPA mice were examined by TUNEL (FIG. 11A) and DHE staining (FIG. 11B), respectively (scale bar=100 μm). […] CHOP protein expression in whole liver and mature SREBP1 in the nuclear fraction were examined by IB analysis. Shown are three individual livers per condition. FIGS. 11D and 11E show the effects of GRP78 overexpression. HFD-fed MUP-uPA mice were intravenously injected with 1×10^9 pfu of Ad-LacZ or Ad-GRP78. After 6 days the mice (n=6 per group) were sacrificed and hepatic steatosis was analyzed by H&E staining (scale bar=100 μm) (FIG. 11D) and GRP78 expression was determined by IB analysis (FIG. 11E). […] Data are means±S.D. (n=3 per group). […] FIGS. 11H-11K show the effect of hepatocyte CHOP ablation on tumor development and severity of NASH in HFD-fed MUP-uPA mice at 40 weeks of age. […] Results are means±S.E.M. (Chop^F/F/MUP-uPA, n=17; Chop^Δhep/MUP-uPA, n=11). *p<0.05. […] Data are means±S.D. (n=5-6 per group).
FIGS. 12A-12F are pictorial and graphical diagrams showing characteristics of Tnfr1^−/−/MUP-uPA mice. FIGS. 12A and 12B show the effect of 4 weeks TUDCA treatment on HFD-fed MUP-uPA mouse liver. IHC of F4/80 (scale bar=100 μm) (FIG. 12A) and TNF mRNA expression (FIG. 12B). Data are means±S.D. (n=5 per group). *p<0.05. […] Data are presented as means±S.D. (n=3 per group). […] Data are presented as means±S.D. (n=5 per group). […] Results are shown as means±S.D.
Hepatic lipids were extracted with chloroform/methanol (2:1 v/v), and TG and total cholesterol contents were measured with Triglyceride Reagent Set (Pointe Scientific) and Cholesterol E (Wako), respectively. FA composition was analyzed by gas-chromatography at SRL Inc., Tokyo, Japan.
Livers were fixed in 10% neutral-buffered formalin or 4% paraformaldehyde, embedded in paraffin, sectioned, and stained with hematoxylin and eosin (H&E), Sirius Red, and processed for IHC. For frozen block preparation, tissue was embedded in Tissue-Tek OCT compound (Sakura Finetek). IHC and IF analyses were described (He et al., 2013). Stained areas were quantitated with Image J software. Slides were incubated with primary antibodies, followed by secondary antibodies labeled with Alexa488 or Alexa594 (Molecular Probes). TUNEL staining was performed using an Apoalert DNA Fragmentation Assay kit (Clontech). Accumulation of superoxide anions was examined by DHE staining (Sakurai et al., 2008). Tissue sample preparation and EM analysis were described (Lee et al., 2012).
We examined the effect of TUDCA on NASH development. We initiated daily i.p. injections of TUDCA (250 mg/kg) or phosphate-buffered saline (PBS; vehicle control) to HFD-fed MUP-uPA mice at 16 weeks of age. […]

[4] = test system: LFD or HFD-fed WT mice; assay: Tunicamycin-induced ER stress and liver damage in LFD- or HFD-fed WT mice; type: in vivo, mouse
Excerpt: FIGS. 10A-10J are pictorial and graphical diagrams showing that ER stress is sustained by HFD in MUP-uPA mice. […] Arrows indicate dilated ER (scale bar=1 μm). […] Representative images of livers and H&E (FIG. 10D) and TUNEL (FIG. 10E) staining of liver sections prepared 36 hrs later (scale bar=100 μm). […] Data are means±S.D. (n=3-4 per group). […] All bar graphs represent means±S.D. n=3 per group). *p<0.05.
Although the mechanism responsible for hepatocyte death in young MUP-uPA mice is not entirely clear, their hepatocytes are ER stressed (Sandgren et al., 1991). Indeed, several ER stress markers, including CHOP, GRP78, spliced XBP1 (sXBP1), phosphorylated (p) eIF2α, p-IRE1α and p-JNK, were elevated in 5 weeks old MUP-uPA mice compared with WT (FIGS. 3A and 10A). While most markers declined in 16 week old MUP-uPA mice, paralleling the decline in uPA expression, HFD-fed MUP-uPA mice maintained strong eIF2α and JNK phosphorylation and CHOP expression, (FIGS. 3B and 10A). In WT mice, HFD feeding induced only a slight elevation in p-eIF2α and CHOP mRNA with no effect on CHOP protein (FIG. 3B). Immunohistochemistry (IHC) confirmed nuclear CHOP in hepatocytes of 5 weeks old MUP-uPA mice, which was sustained at 16 weeks of age only in HFD-fed MUP-uPA mice (FIG. 3C). […] After 24 weeks of HFD, expression of the […] ligand TRAIL was also elevated in the MUP-uPA liver. […] Thus, whereas ER stress appears to be induced by uPA expression in 5 weeks old MUP-uPA mice, it declines due to transgene extinction. However, feeding these mice with HFD re-kindles the stress response and induces several cell death mediators that are not expressed in HFD-fed WT mice. To determine whether ER stress can cause ballooning degeneration and hepatocyte death, we injected HFD-fed WT mice with the protein glycosylation inhibitor and ER stress elicitor tunicamycin. This treatment led to rapid (36 hrs) induction of ballooning degeneration, hepatocyte apoptosis and ALT release only in HFD-fed mice (FIGS. 10D-10F).

[5] = 200 μM PA, WT hepatocytes, more pronounced in MUP-uPA hepatocytes
[6] = 250 mg/kg i.p. daily for 4 weeks from 16 weeks of age, vs PBS vehicle
[7] = 250 mg/kg i.p. daily for 4 weeks, vs vehicle
[8] = HFD-fed WT mice, 1.25 mg/kg i.p., 36 hrs, only in HFD-fed mice

O=C(O)CCCc1ccccc1 [4-PBA, 4-phenylbutyric acid]
PA-induced cell death (cell viability) [1]: attenuated PA-induced cell death | CHOP induction upon PA treatment ([2]; 200 μM PA with 1 mM 4-PBA, IB): reduced | JNK phosphorylation upon PA treatment ([2]; 200 μM PA with 1 mM 4-PBA, IB): only partially reduced | SREBP1 maturation upon PA treatment ([2]; 200 μM PA with 1 mM 4-PBA, IB): reduced

CCCCCCCCCCCCCCCC(=O)O [PA, palmitic acid]
lipotoxic cell death caused by PA ([1]; 300 μM PA, after 24 hrs, more extensive in MUP-uPA hepatocytes): lipotoxic cell death was seen in both WT and MUP-uPA hepatocytes | CHOP expression caused by PA [2, 5]: increased | SREBP1 maturation caused by PA [2, 5]: increased | JNK activation by PA ([2]; 200 μM PA, effect restricted to WT hepatocytes): activated

C[C@H](CCC(=O)NCCS(=O)(=O)O)[C@H]1CC[C@H]2[C@@H]3[C@@H](O)C[C@@H]4C[C@H](O)CC[C@]4(C)[C@H]3CC[C@]12C [TUDCA, tauroursodeoxycholic acid]
hepatic TG [3, 6]: significantly reduced | hepatic cholesterol [3, 6]: significantly reduced | hepatocyte ballooning (liver histology) [3, 6]: attenuated | hepatosteatosis (liver histology) [3, 6]: attenuated | serum ALT [3, 6]: significantly reduced | SREBP1 maturation in liver (IB) ([3]; 250 mg/kg i.p. daily for 4 weeks, nuclear fraction): inhibited | ROS accumulation (DHE staining) [3, 7]: suppressed | hepatocyte death (TUNEL) [3, 7]: suppressed | CHOP expression in liver (IB) ([3]; 250 mg/kg i.p. daily for 4 weeks, whole liver): inhibited | TNF expression in liver (mRNA) ([3]; 4 weeks TUDCA treatment): inhibited | macrophage infiltration in liver (F4/80 IHC) ([3]; 4 weeks TUDCA treatment): inhibited | PA-induced cell death (cell viability) [1]: attenuated PA-induced cell death

tunicamycin
liver steatosis (gross appearance of liver) ([4]; HFD-fed WT mice, 1.25 mg/kg i.p., 36 hrs): more steatotic | ALT release (serum ALT) [4, 8]: induction | ballooning degeneration [4, 8]: induction | hepatocyte apoptosis (TUNEL) [4, 8]: induction | liver damage by tunicamycin alone ([4]; short term, by itself (without HFD)): did not damage the liver
